{"source": "paper PMC6178217", "about": "(JACC. Cardiovascular imaging, 2018)", "key": {"[1]": {"settings": "as reported in brain studies; cited from earlier work"}, "CB1-R [2]": {"tested_on": "CB1-R", "settings": "cited from earlier work"}, "CB1-R [3]": {"target": "CB1-R (Mus musculus, UniProt P47746)", "sequence (P47746 whole entry)": "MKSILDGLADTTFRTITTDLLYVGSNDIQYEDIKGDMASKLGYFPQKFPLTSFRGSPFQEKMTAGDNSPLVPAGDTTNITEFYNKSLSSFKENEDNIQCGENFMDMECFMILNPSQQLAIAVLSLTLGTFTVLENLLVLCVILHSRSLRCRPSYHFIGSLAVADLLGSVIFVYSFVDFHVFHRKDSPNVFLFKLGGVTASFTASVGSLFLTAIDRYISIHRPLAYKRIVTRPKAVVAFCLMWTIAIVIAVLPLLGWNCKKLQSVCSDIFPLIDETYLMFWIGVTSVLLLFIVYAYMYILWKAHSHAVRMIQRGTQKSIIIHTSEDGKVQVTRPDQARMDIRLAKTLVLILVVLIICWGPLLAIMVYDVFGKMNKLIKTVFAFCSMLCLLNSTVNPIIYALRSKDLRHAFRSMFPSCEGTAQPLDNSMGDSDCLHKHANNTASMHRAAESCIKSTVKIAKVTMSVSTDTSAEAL", "assay": "Rimonabant blocking study of [^11C]-OMAR uptake in obese mice", "format": "in vivo"}, "myocardial CB1-R [4]": {"target": "myocardial CB1-R (Mus musculus, UniProt P47746)", "sequence (P47746 whole entry)": "as above", "assay": "[^11C]-OMAR dynamic micro-PET/CT, myocardial OMAR retention in mice", "format": "in vivo", "settings": "for myocardial OMAR retention: median [range]"}, "myocardial CB1-R [5]": {"target": "myocardial CB1-R (Homo sapiens, UniProt P21554)", "sequence (P21554 whole entry)": "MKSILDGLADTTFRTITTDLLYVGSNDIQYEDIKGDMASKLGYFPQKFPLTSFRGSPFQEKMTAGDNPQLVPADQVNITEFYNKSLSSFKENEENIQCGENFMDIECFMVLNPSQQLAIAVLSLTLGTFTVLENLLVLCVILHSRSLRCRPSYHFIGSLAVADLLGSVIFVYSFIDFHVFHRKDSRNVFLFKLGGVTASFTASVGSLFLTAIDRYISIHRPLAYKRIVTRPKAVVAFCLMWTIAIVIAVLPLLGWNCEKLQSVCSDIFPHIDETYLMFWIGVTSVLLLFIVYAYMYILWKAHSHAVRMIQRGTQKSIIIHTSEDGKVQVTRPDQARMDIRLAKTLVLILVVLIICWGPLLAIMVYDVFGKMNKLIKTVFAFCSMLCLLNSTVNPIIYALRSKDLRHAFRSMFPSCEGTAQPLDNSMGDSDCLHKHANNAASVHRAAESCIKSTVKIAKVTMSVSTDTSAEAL", "assay": "[^11C]-OMAR PET/CT, myocardial retention index of OMAR in humans", "format": "in vivo", "settings": "median (range)"}, "[6]": {"settings": "obese mice, intravenous, median (range)"}, "[7]": {"settings": "median (range)"}}, "note": "Where two headings read alike, the source gives them in different places.", "data": [{"smiles": "[11CH3]Oc1ccc(-c2c(C#N)c(C(=O)NN3CCCCC3)nn2-c2ccc(Cl)cc2Cl)cc1", "note": "[[^11C]-OMAR]", "values": [{"measurement": "radioactivity related to unchanged [^11C]-OMAR", "setting": "[1]", "result": "at least 94%"}, {"measurement": "blocking of [^11C]-OMAR uptake reported for brain studies", "setting": "CB1-R [2]; brain", "result": "about 75%"}, {"measurement": "binding potential in the brain", "setting": "CB1-R [2]; previous blocking studies in the brain", "result": "about 2"}, {"measurement": "[^11C]-OMAR uptake that could not be blocked", "setting": "CB1-R [3]; 5 mg/kg dose of rimonabant, heart", "result": "about 42%"}, {"measurement": "baseline-to-block ratio of myocardial [^11C]-OMAR uptake", "setting": "CB1-R [3]; myocardial blocking study", "result": "about 2.4"}, {"measurement": "binding potential", "setting": "CB1-R [3]; myocardial blocking study", "result": "> 1"}, {"measurement": "fold higher [^11C]-OMAR retention in obese versus lean mice", "setting": "myocardial CB1-R [4]; heart, ob/ob vs lean control mice, micro-PET/CT", "result": 8, "unit": "fold"}, {"measurement": "myocardial OMAR retention", "setting": "myocardial CB1-R [4]; normal-weight mice", "result": 0.13, "unit": "%/min"}, {"measurement": "binding potential of [^11C]-OMAR to myocardial CB1-R", "setting": "myocardial CB1-R [4]; obese mice", "result": 6.4}, {"measurement": "myocardial OMAR retention", "setting": "myocardial CB1-R [4]; obese mice", "result": 8.29, "unit": "%/min"}, {"measurement": "OMAR retention (absolute left ventricular)", "setting": "myocardial CB1-R [5]; AOB (advanced obesity)", "result": "5.68 (1.88–6.89) %/min"}, {"measurement": "OMAR retention (absolute left ventricular)", "setting": "myocardial CB1-R [5]; CON (normal-weight control subjects)", "result": "0.47 (0.13–1.31) %/min"}, {"measurement": "[^11C]-OMAR uptake, Blood", "setting": "[6]; 5 min", "result": "1.19 (1.10–1.33) %ID/g Tissue"}, {"measurement": "[^11C]-OMAR uptake, Cerebellum", "setting": "[6]; 5 min", "result": "2.43 (1.72–2.74) %ID/g Tissue"}, {"measurement": "[^11C]-OMAR uptake, Heart", "setting": "[6]; 5 min", "result": "4.63 (4.00–5.23) %ID/g Tissue"}, {"measurement": "[^11C]-OMAR uptake, Blood", "setting": "[6]; 10 min", "result": "0.99 (0.91–1.19) %ID/g Tissue"}, {"measurement": "[^11C]-OMAR uptake, Cerebellum", "setting": "[6]; 10 min", "result": "2.32 (2.11–2.50) %ID/g Tissue"}, {"measurement": "[^11C]-OMAR uptake, Thalamus", "setting": "[6]; 10 min", "result": "1.62 (1.59–1.72) %ID/g Tissue"}, {"measurement": "[^11C]-OMAR uptake, Blood", "setting": "[6]; 15 min", "result": "0.99 (0.91–1.19) %ID/g Tissue"}, {"measurement": "[^11C]-OMAR uptake, Cerebellum", "setting": "[6]; 15 min", "result": "2.53 (2.43–2.55) %ID/g Tissue"}, {"measurement": "[^11C]-OMAR uptake, Thalamus", "setting": "[6]; 15 min", "result": "1.69 (1.59–1.72) %ID/g Tissue"}, {"measurement": "[^11C]-OMAR uptake, Blood", "setting": "[6]; 30 min", "result": "0.55 (0.39–0.65) %ID/g Tissue"}, {"measurement": "[^11C]-OMAR uptake, Cerebellum", "setting": "[6]; 30 min", "result": "2.11 (1.25–2.38) %ID/g Tissue"}, {"measurement": "[^11C]-OMAR uptake, Heart", "setting": "[6]; 30 min", "result": "2.14 (2.09–2.17) %ID/g Tissue"}, {"measurement": "[^11C]-OMAR uptake, Thalamus", "setting": "[6]; 30 min", "result": "1.21 (1.18–1.21) %ID/g Tissue"}, {"measurement": "[^11C]-OMAR uptake, Blood", "setting": "[6]; 60 min", "result": "0.46 (0.46–0.47) %ID/g Tissue"}, {"measurement": "[^11C]-OMAR uptake, Cerebellum", "setting": "[6]; 60 min", "result": "1.37 (1.25–1.51) %ID/g Tissue"}, {"measurement": "[^11C]-OMAR uptake, Heart", "setting": "[6]; 60 min", "result": "1.55 (1.48–1.61) %ID/g Tissue"}, {"measurement": "[^11C]-OMAR uptake, Thalamus", "setting": "[6]; 60 min", "result": "0.73 (0.58–0.77) %ID/g Tissue"}, {"measurement": "[^11C]-OMAR uptake, Blood", "setting": "[6]; 90 min", "result": "0.55 (0.51–0.68) %ID/g Tissue"}, {"measurement": "[^11C]-OMAR uptake, Cerebellum", "setting": "[6]; 90 min", "result": "1.11 (1.05–2.00) %ID/g Tissue"}, {"measurement": "[^11C]-OMAR uptake, Heart", "setting": "[6]; 90 min", "result": "1.40 (1.40–1.79) %ID/g Tissue"}, {"measurement": "[^11C]-OMAR uptake, Thalamus", "setting": "[6]; 90 min", "result": "0.55 (0.38–0.98) %ID/g Tissue"}, {"measurement": "DBP after [^11C]-OMAR injection", "setting": "[7]; AOB", "result": "71 (56–78) mm Hg"}, {"measurement": "HR after [^11C]-OMAR injection", "setting": "[7]; AOB", "result": "72 (65–84) beats/min"}, {"measurement": "MAP after [^11C]-OMAR injection", "setting": "[7]; AOB", "result": "93 (76–96) mm Hg"}, {"measurement": "RPP after [^11C]-OMAR injection", "setting": "[7]; AOB", "result": "9,588 (7,325–10,960) mm Hg/min"}, {"measurement": "SBP after [^11C]-OMAR injection", "setting": "[7]; AOB", "result": "133 (116–140) mm Hg"}, {"measurement": "DBP after [^11C]-OMAR injection", "setting": "[7]; CON", "result": "62 (60–68) mm Hg"}, {"measurement": "HR after [^11C]-OMAR injection", "setting": "[7]; CON", "result": "70 (61–77) beats/min"}, {"measurement": "MAP after [^11C]-OMAR injection", "setting": "[7]; CON", "result": "81 (75–97) mm Hg"}, {"measurement": "SBP after [^11C]-OMAR injection", "setting": "[7]; CON", "result": "120 (118–124) mm Hg"}]}]}
